Where two headings read alike, the source gives them in different places.
Key:
[1] = test system: P. infestans; format: in vivo, Phytophthora infestans; set-up: ED90: unit not given beside the values
[2] = test system: P. infestans; format: cell-based, Phytophthora infestans; set-up: unit not given beside the values
[3] = test system: P. infestans; format: in vivo, Phytophthora infestans; set-up: unit not given beside the values; conditions: TOMATO; Table 2
[4] = test system: P. infestans; format: in vivo, Phytophthora infestans; set-up: unit not given beside the values; conditions: POTATO; Table 2
[5] = test system: Pythium aphanidermatum; test: Pythium aphanidermatum mycelial growth in vitro; format: cell-based; conditions: recommended dosage of 0.07% of active ingredient; 24 hr, 25° C.; FIG. 6
[6] = test system: P. aphanidermatum; test: Pythium damping-off disease in cucumber seedlings; format: in vivo, Pythium aphanidermatum; conditions: drench at 0.07% of active ingredient, after 10 days, FIG. 7

OP(O)O [H3PO3, Phosphorous Acid]
Inhibition (% of control) ([1]; Tomato, 0.01% active ingredient, Table 4): 13 % of control | Inhibition (% of control) ([1]; Tomato, 0.02% active ingredient, Table 4): 13 % of control | Inhibition (% of control) ([1]; Tomato, 0.05% active ingredient, Table 4): 19 % of control | Inhibition (% of control) ([1]; Tomato, 0.1% active ingredient, Table 4): 31 % of control | ED90 ([1]; in vivo): 2.52 | ED90 [2]: 45

Potassium Phosphite [K3PO3]
ED90 [3]: 1.10 | ED90 [4]: 0.52 | Inhibition (% of control) ([1]; Tomato, 0.12% active ingredient, Table 3): 50 % of control | Inhibition (% of control) ([1]; Tomato, 0.25% active ingredient, Table 3): 63 % of control | Inhibition (% of control) ([1]; Tomato, 0.5% active ingredient, Table 3): 86 % of control | Inhibition (% of control) ([1]; Tomato, 1.0% active ingredient, Table 3): 98 % of control | ED90 ([1]; Tomato, Table 3): 0.55 | ED90 ([2]; tomato leaf discs, Table 1): 130

CCO[PH](=O)O [Fosetyl-Al]
inhibition of radial growth in vitro [5]: 50% | plants survived in Pythium-inoculated flats [6]: 70-80%

Reference: patent publication US6689392B2, “Methods and compositions for controlling plant pathogen” (Agricare Ltd., priority 2001, dated 2004)
